Assays:
[1] = compound: C=CC(=O)Nc1ccc(C(=O)Nc2[nH]nc3c2CN(C(=O)N[C@H](CN(C)C)c2ccccc2)C3(C)C)cc1 [YKL-5-124]; assay: increase in dead-cell fraction, 72 h; higher = more death;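 further: breast cancer cell lines in 384-well plates, stained with Hoechst plus LIVE/DEAD far red dye and imaged, cells above an LDR intensity threshold counted dead, Hoechst-negative corpses included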
[2] = compound: CC(=O)c1c(C)c2cnc(Nc3ccc(N4CCN(CCOCCOCCOCCNC(=O)COc5cccc6c5C(=O)N(C5CCC(=O)NC5=O)C6=O)CC4)cn3)nc2n(C2CCCC2)c1=O [BSJ-03-123]; assay: as above
[3] = compound: CN(C)C(=O)c1cc2cnc(Nc3ccc(N4CCNCC4)cn3)nc2n1C1CCCC1 [LEE011/Ribociclib]; assay: as above
[4] = compound: CN(C)C/C=C/C(=O)Nc1ccc(C(=O)N2CCC[C@@H](Nc3ncc(Cl)c(-c4c[nH]c5ccccc45)n3)C2)cc1 [THZ531]; assay: as above
[5] = compound: T1, CN(C)C/C=C/C(=O)Nc1ccc(C(=O)Nc2cccc(Nc3ncc(Cl)c(-c4c[nH]c5ccccc45)n3)c2)cc1 [THZ1]; assay: as above
[6] = compound: CN1CC[C@H](c2c(O)cc(O)c3c(=O)cc(-c4ccccc4Cl)oc23)[C@H](O)C1 [Flavopiridol]; assay: as above
[7] = compound: T1, THZ1; assay: GR value, 72 h; higher = faster growth (1 = untreated, <0 = killing);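 further: breast cancer and non-malignant breast epithelial lines, nine half-log doses, viable cells counted by Hoechst and LIVE/DEAD dye imaging versus time-zero plates and DMSO controls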

Cell Line: PDX1206
- increase in dead-cell fraction ([1]; 0.001 µM): -0.009
- increase in dead-cell fraction ([1]; 0.003162 µM): -0.0048
- increase in dead-cell fraction ([1]; 0.01 µM): 0.0238
- increase in dead-cell fraction ([1]; 0.03162 µM): 0.0116
- increase in dead-cell fraction ([1]; 0.1 µM): 0.0307
- increase in dead-cell fraction ([1]; 0.3162 µM): 0.0443
- increase in dead-cell fraction ([1]; 1 µM): 0.0358
- increase in dead-cell fraction ([1]; 3.162 µM): 0.0858
- increase in dead-cell fraction ([1]; 10 µM): 0.484
- increase in dead-cell fraction ([2]; 0.001 µM): -0.0047
- increase in dead-cell fraction ([2]; 0.003162 µM): -0.004
- increase in dead-cell fraction ([2]; 0.01 µM): -0.0083
- increase in dead-cell fraction ([2]; 0.03162 µM): -0.0021
- increase in dead-cell fraction ([2]; 0.1 µM): -0.0156
- increase in dead-cell fraction ([2]; 0.3162 µM): -0.0027
- increase in dead-cell fraction ([2]; 1 µM): -0.0025
- increase in dead-cell fraction ([2]; 3.162 µM): -0.0175
- increase in dead-cell fraction ([2]; 10 µM): 0.217
- increase in dead-cell fraction ([3]; 0.001 µM): -0.0167
- increase in dead-cell fraction ([3]; 0.003162 µM): -0.0241
- increase in dead-cell fraction ([3]; 0.01 µM): 0.009
- increase in dead-cell fraction ([3]; 0.03162 µM): -0.0043
- increase in dead-cell fraction ([3]; 0.1 µM): -0.0009
- increase in dead-cell fraction ([3]; 0.3162 µM): 0.0111
- increase in dead-cell fraction ([3]; 1 µM): -0.0007
- increase in dead-cell fraction ([3]; 3.162 µM): 0.0201
- increase in dead-cell fraction ([3]; 10 µM): 0.0115
- increase in dead-cell fraction ([4]; 0.0001 µM): -0.0011
- increase in dead-cell fraction ([4]; 0.0003162 µM): 0.0053
- increase in dead-cell fraction ([4]; 0.001 µM): -0.0065
- increase in dead-cell fraction ([4]; 0.003162 µM): -0.0032
- increase in dead-cell fraction ([4]; 0.01 µM): -0.0015
- increase in dead-cell fraction ([4]; 0.03162 µM): -0.0072
- increase in dead-cell fraction ([4]; 0.1 µM): 0.347
- increase in dead-cell fraction ([4]; 0.3162 µM): 0.257
- increase in dead-cell fraction ([4]; 1 µM): 0.344
- increase in dead-cell fraction ([5]; 0.0001 µM): -0.0189
- increase in dead-cell fraction ([5]; 0.0003162 µM): 0.0062
- increase in dead-cell fraction ([5]; 0.001 µM): -0.0104
- increase in dead-cell fraction ([5]; 0.003162 µM): -0.008
- increase in dead-cell fraction ([5]; 0.01 µM): -0.0089
- increase in dead-cell fraction ([5]; 0.03162 µM): 0.0587
- increase in dead-cell fraction ([5]; 0.1 µM): 0.346
- increase in dead-cell fraction ([5]; 0.3162 µM): 0.424
- increase in dead-cell fraction ([5]; 1 µM): 0.513
- increase in dead-cell fraction ([6]; 0.0001 µM): 0.009
- increase in dead-cell fraction ([6]; 0.0003162 µM): 0.0115
- increase in dead-cell fraction ([6]; 0.001 µM): 0.0015
- increase in dead-cell fraction ([6]; 0.003162 µM): 0.0091
- increase in dead-cell fraction ([6]; 0.01 µM): -0.0105
- increase in dead-cell fraction ([6]; 0.03162 µM): 0.0053
- increase in dead-cell fraction ([6]; 0.1 µM): 0.0408
- increase in dead-cell fraction ([6]; 0.3162 µM): 0.405
- increase in dead-cell fraction ([6]; 1 µM): 0.587
- GR value ([7]; 0.0001 µM): 1.05 GR
- GR value ([7]; 0.0003162 µM): 1.03 GR
- GR value ([7]; 0.001 µM): 0.987 GR
- GR value ([7]; 0.003162 µM): 0.977 GR
- GR value ([7]; 0.01 µM): 0.933 GR
- GR value ([7]; 0.03162 µM): 0.351 GR
- GR value ([7]; 0.1 µM): -0.278 GR
- GR value ([7]; 0.3162 µM): -0.408 GR
- GR value ([7]; 1 µM): -0.536 GR
